Reference: US9328374B2, “Selective culture medium and method for detecting carbapenem-resistant bacteria in a test sample” (Institut National de la Sante et de la Recherche Medicale …, priority 2011, dated 2016)

What was measured:
Experiment in all cases: MIC of imipenem, ertapenem and meropenem
[1] = test system: K. pneumoniae; format: cell-based, Klebsiella pneumoniae
[2] = test system: P. rettgeri; format: cell-based, Providencia rettgeri
[3] = test system: C. koseri; format: cell-based

Measured: MIC

C[C@@H](O)[C@H]1C(=O)N2C(C(=O)O)=C(S[C@@H]3CN[C@H](C(=O)N(C)C)C3)[C@H](C)[C@H]12 [MEM, meropenem]
1 µg/mL: [1]; K. pneumoniae 0709121, IMP-1 | [1]; K. pneumoniae 0709127, IMP-1 + TEM-1 | [1]; K. pneumoniae BEL (OXA-48) | [1]; K. pneumoniae BEL, OXA-48 | [1]; K. pneumoniae BER (TEM-1 + SHV-28) | [1]; K. pneumoniae BER, SHV-28 + TEM-1, non-carbapenemase producer, porin deficiency | [1]; K. pneumoniae HOL (OXA-181 + CTX-M-15) | [1]; K. pneumoniae HOL, OXA-181 + CTX-M-15 | [1]; K. pneumoniae KIE, NDM-1 + SHV-38 + CMY-16 + OXA-10 | [1]; K. pneumoniae MAD (VIM-1 + CTX-M-3) | [1]; K. pneumoniae MAD, VIM-1+ CTX-M-3 | [1]; K. pneumoniae RAM (OXA-48) | [1]; K. pneumoniae RAM, OXA-48 | [1]; K. pneumoniae SHI (CTX-M-15 + TEM-1 + SHV-1) | [1]; K. pneumoniae SHI, CTX-M-15 + TEM-1 + SHV-11, non-carbapenemase producer, porin deficiency | [1]; K. pneumoniae SHM (CTX-M-15 + TEM-1 + SHV-11) | [1]; strain K. pneumoniae BEL, OXA-48 | [1]; strain K. pneumoniae BER, SHV-28 + TEM-1, non-carbapenemase producer | [1]; strain K. pneumoniae HOL, OXA-181 + CTX-M-15
0.012 µg/mL: [1]; K. pneumoniae KPN, CTX-M-15, non-carbapenemase producer
0.75 µg/mL: [1]; K. pneumoniae VSG (OXA-48 + TEM-1 + CTX-M-15 + OXA-1) | [1]; K. pneumoniae VSG, OXA-48 + TEM-1 + CTX-M-15 + OXA-1 | [1]; strain K. pneumoniae VSG, OXA-48 + TEM-1 + CTX-M-15 + OXA-1
16 µg/mL: [1]; K. pneumoniae 588, KPC-2 + TEM-1 + SHV-11 + OXA-9 | [1]; K. pneumoniae LIB, OXA-48 | [1]; K. pneumoniae OM4, NDM-1 + TEM-1 + CTX-M-15 + SHV-12 + OXA-9 | [1]; K. pneumoniae OM16, NDM-1 + CTX-M-15 + OXA-1 + OXA-181
0.38 µg/mL: [1]; K. pneumoniae 648236 (SHV-2a) | [1]; K. pneumoniae 648236, SHV-2a, non-carbapenemase producer, porin deficiency | [1]; K. pneumoniae AEL, OXA-48 + CTX-M-15 + SHV-28 + OXA-1 | [1]; K. pneumoniae AMS (OXA-48 + TEM-1 + CTX-M-15 + OXA-1) | [1]; K. pneumoniae AMS, OXA-48 + TEM-1 + CTX-M-15 + OXA-1 | [1]; K. pneumoniae BAJ (OXA-48 + TEM-1 + CTX-M-15 + SHV-28) | [1]; K. pneumoniae BAJ, OXA-48 + TEM-1 + CTX-M-15 + SHV-28 | [1]; K. pneumoniae BEY (OXA-48 + CTX-M-15 + TEM-1) | [1]; K. pneumoniae BEY, OXA-48 + TEM-1 + CTX-M-15 | [1]; K. pneumoniae DAL (OXA-48 + CTX-M-15 + TEM-1) | [1]; K. pneumoniae DAL, OXA-48 + TEM-1 + CTX-M-15 | [1]; K. pneumoniae ELK (OXA-48 + TEM-1 + CTX-M-15 + SHV-11) | [1]; K. pneumoniae ELK, OXA-48 + TEM-1 + CTX-M-15 + SHV-11 | [1]; K. pneumoniae ENN, VIM-1+ SHV-5 | [1]; K. pneumoniae OM14, OXA-48 + TEM-1 | [1]; K. pneumoniae TIK, OXA-48 | [1]; K. pneumoniae VER, OXA-48 + TEM-1 + CTX-M-15 + SHV-11 | [1]; strain K. pneumoniae 648236, SHV-2a, non-carbapenemase producer | [1]; strain K. pneumoniae AMS, OXA-48 + TEM-1 + CTX-M-15 + OXA-1 | [1]; strain K. pneumoniae BAJ, OXA-48 + TEM-1 + CTX-M-15 + SHV-28 | [1]; strain K. pneumoniae ELK, OXA-48 + TEM-1 + CTX-M-15 + SHV-11 | [3]; C. koseri ROU, OXA-48 | [3]; C. koseri VER (OXA-48) | [3]; C. koseri VER, OXA-48 | [3]; strain C. koseri VER, OXA-48
0.016 µg/mL: [1]; K. pneumoniae 0227, SHV-1, non-carbapenemase producer | [1]; K. pneumoniae 1025 (CTX-M-14 + TEM-1 + SHV-11) | [1]; K. pneumoniae 1025, CTX-M-14 + TEM-1 + SHV-11, non-carbapenemase producer
2 µg/mL: [1]; K. pneumoniae 2 OLA (NDM-1 + OXA-1) | [1]; K. pneumoniae 0709124, IMP-1 + TEM-15 | [1]; K. pneumoniae 0709125, IMP-1 + TEM-1 + SHV-12 | [1]; K. pneumoniae EGY (OXA-48 + CTX-M-15) | [1]; K. pneumoniae EGY, OXA-48 + CTX-M-15 | [1]; K. pneumoniae KAM, KPC-3 + TEM-1 + SHV-11 | [1]; K. pneumoniae OM13, NDM-1 + TEM-1 + CTX-M-15 + SHV-28 + OXA-1 + OXA-9 | [1]; K. pneumoniae OMA419 (NDM-1 + OXA-1) | [1]; K. pneumoniae OMA419, NDM-1 + OXA-1 | [1]; K. pneumoniae YC, KPC-2 + TEM-1 + SHV-11 + SHV-12 + OXA-9 | [1]; strain K. pneumoniae OMA419, NDM-1 + OXA-1 | [2]; P. rettgeri RAP (OXA-181 + OXA-1) | [2]; P. rettgeri RAP, OXA-181 + OXA-1 | [2]; strain P. rettgeri RAP, OXA-181 + OXA-1
6 µg/mL: [1]; K. pneumoniae MEK (CTX-M-15 + SHV-11) | [1]; K. pneumoniae MEK, CTX-M-15 + SHV-11, non-carbapenemase producer, porin deficiency | [1]; K. pneumoniae SIM (CTX-M-15 + TEM-1 + SHV-1) | [1]; K. pneumoniae SIM, CTX-M-15 + TEM-1 + SHV-1, non-carbapenemase producer, porin deficiency
0.5 µg/mL: [1]; K. pneumoniae BIC (OXA-48) | [1]; K. pneumoniae BIC, OXA-48 | [1]; K. pneumoniae CHA (OXA-48 + TEM-1) | [1]; K. pneumoniae CHA, OXA-48 + TEM-1 | [1]; K. pneumoniae LOU, OXA-48 | [1]; K. pneumoniae OMA (OXA-181 + CTX-M-15 + OXA-1) | [1]; K. pneumoniae OMA, OXA-181 + CTXM-15 + OXA-1 | [1]; K. pneumoniae ROB (OXA-48 + CTX-M-15 + TEM-1) | [1]; K. pneumoniae TAW, IMP-8 + SHV-12 | [1]; K. pneumoniae TWA, IMP-8 | [1]; strain K. pneumoniae OMA, OXA-181 + CTXM-15 + OXA-1
0.25 µg/mL: [1]; K. pneumoniae BEN (OXA-48 + TEM-1 + CTX-M-15 + SHV-28) | [1]; K. pneumoniae BEN, OXA-48 + TEM-1 + CTX-M-15 + SHV-28 | [1]; K. pneumoniae BOU, OXA-48 | [1]; K. pneumoniae OM11, OXA-48 + TEM-1 + CTX-M-14 | [1]; K. pneumoniae ROU (OXA-48 + CTX-M-15) | [1]; K. pneumoniae ROU, OXA-48 + CTX-M-15 | [1]; K. pneumoniae SCO (OXA-48) | [1]; K. pneumoniae SCO, OXA-48 | [1]; K. pneumoniae SIC (OXA-48 + CTX-M-15 + SHV-28) | [1]; K. pneumoniae SIC, OXA-48 + CTX-M-15 + SHV-28 | [1]; strain K. pneumoniae BEN, OXA-48 + TEM-1 + CTX-M-15 + SHV-28 | [1]; strain K. pneumoniae ROU, OXA-48 + CTX-M-15 | [1]; strain K. pneumoniae SCO, OXA-48 | [1]; strain K. pneumoniae SIC, OXA-48 + CTX-M-15 + SHV-28
3 µg/mL: [1]; K. pneumoniae 6642 GEN (NDM-1 + CTX-M-15 + OXA-1 + OXA-10) | [1]; K. pneumoniae 6642 GEN, NDM-1 + CTX-M-15 + OXA-1 + OXA-10 | [1]; K. pneumoniae LEG (CTX-M-15 + TEM-1 + SHV-12) | [1]; K. pneumoniae LEG, CTX-M-15 + TEM-1 + SHV-12, non-carbapenemase producer, porin deficiency | [1]; K. pneumoniae OM15, NDM-1 + CTX-M-15 + SHV-130 + OXA-1 | [1]; K. pneumoniae SHM, CTX-M-15 + TEM-1 + SHV-11, non-carbapenemase producer, porin deficiency
12 µg/mL: [1]; K. pneumoniae HPA, OXA-48 + TEM-1 + CTX-M-15 + OXA-1
4 µg/mL: [1]; K. pneumoniae ALE (CTX-M-15 + SHV-1) | [1]; K. pneumoniae ALE, CTX-M-15 + SHV-1, non-carbapenemase producer, porin deficiency | [1]; K. pneumoniae BED (CTX-M-15 + TEM-1 + SHV-1; Table 8: SHV-11) | [1]; K. pneumoniae BED, CTX-M-15 + TEM-1 + SHV-11, non-carbapenemase producer, porin deficiency | [1]; K. pneumoniae COO (CTX-M-15 + SHV28) | [1]; K. pneumoniae COO, CTX-M-15 + SHV-28, non-carbapenemase producer, porin deficiency | [1]; K. pneumoniae IND (NDM-1 + OXA-1 + CTX-M-15) | [1]; K. pneumoniae KI2, NDM-1 + CTX-M-15 + OXA-1 | [1]; K. pneumoniae OM8, NDM-1 + TEM-1 + CTX-M-15 + SHV-11 + OXA-1 | [1]; strain K. pneumoniae ALE, CTX-M-15 + SHV-1, non-carbapenemase producer | [1]; strain K. pneumoniae BED, CTX-M-15 + TEM-1 + SHV-11, non-carbapenemase producer
8 µg/mL: [1]; K. pneumoniae OM19, NDM-1 + CTX-M-15 + SHV-12 + OXA-1 | [1]; K. pneumoniae TUR (IMP-1) | [1]; K. pneumoniae TUR, IMP-1
0.023 µg/mL: [1]; K. pneumoniae 1022, SHV-2a + SHV-28, non-carbapenemase producer | [1]; K. pneumoniae 10112, CTX-M-15 + TEM-1 + SHV-11, non-carbapenemase producer
0.12 µg/mL: [1]; K. pneumoniae KDH (DHA-2) | [1]; K. pneumoniae KDH, DHA-2, non-carbapenemase producer, overexpressed AmpC | [1]; K. pneumoniae KPN (CTX-M-15)
32 µg/mL: [1]; K. pneumoniae A28006, KPC-2 + TEM-1 + CTX-M-2 + SHV-11 | [1]; K. pneumoniae COL (KPC-2 + TEM-1 + SHV-1 + CTX-M-15) | [1]; K. pneumoniae DUW, OXA-48 + TEM-1 + CTX-M-15 + SHV-28
>32 µg/mL: [1]; K. pneumoniae 1 OMA (NDM-1 + CTX-M-15 + OXA-1 + OXA-9) | [1]; K. pneumoniae 7 AFR (NDM-1 + OXA-1 + CTX-M-15 + CMY-6 + TEM-1) | [1]; K. pneumoniae 7AFR, NDM-1 + TEM-1 + CTX-M-15 + CMY-6 + OXA-1 | [1]; K. pneumoniae 2303, KPC-2 + SHV-11 | [1]; K. pneumoniae 6759 GEN (NDM-1 + CTX-M-15 + OXA-1 + OXA-9 + OXA-10 + CMY16) | [1]; K. pneumoniae 6759 GEN, NDM-1 + CTX-M-15 + CMY-16 + OXA-1 + OXA-9 + OXA-10 | [1]; K. pneumoniae 0404020, VIM-1+ SHV-5 | [1]; K. pneumoniae 0404024, VIM-1 | [1]; K. pneumoniae 0511135, VIM-1+ SHV-12 | [1]; K. pneumoniae A33504, KPC-2 + TEM-1 + SHV-11 + CTX-M-2 + OXA-9 | [1]; K. pneumoniae DIA, OXA-48 + TEM-1b + CTX-M-15 + SHV-11 + OXA-1 | [1]; K. pneumoniae FOS (CTX-M-15 + TEM-1 + SHV-11) | [1]; K. pneumoniae FOS, CTX-M-15 + TEM-1 + SHV-11, non-carbapenemase producer, porin deficiency | [1]; K. pneumoniae LIB (OXA-48) | [1]; K. pneumoniae LIE, KPC-2 + TEM-2 + OXA-9 | [1]; K. pneumoniae OMA601, NDM-1 + CTX-M-15 + OXA-1 + OXA-9 | [1]; K. pneumoniae UK (NDM-1 + CTX-M-15 + CMY-4 + OXA-1) | [1]; K. pneumoniae UK, NDM-1 + CTX-M-15 + CMY-4 + OXA-1
0.032 µg/mL: [1]; K. pneumoniae 7725 (SHV-1) | [1]; K. pneumoniae 7725, SHV-1, non-carbapenemase producer | [1]; strain K. pneumoniae 7725, SHV-1, non-carbapenemase producer
1.5 µg/mL: [1]; K. pneumoniae GES, KPC-2 + TEM-1 + SHV-11 | [1]; K. pneumoniae MUS (KPC-2 + TEM-1 + SHV-11 + SHV-12) | [1]; K. pneumoniae MUS, KPC-2 + TEM-1 + SHV-11 + SHV-12 | [1]; K. pneumoniae OM2 (NDM-1 + TEM-1 + CTX-M-3 + SHV-11 + OXA-1) | [1]; K. pneumoniae OM2, NDM-1 + TEM-1 + CTX-M-3 + SHV-11 + OXA-1 | [1]; strain K. pneumoniae MUS, KPC-2 + TEM-1 + SHV-11 + SHV-12 | [1]; strain K. pneumoniae OM2, NDM-1 + TEM-1 + CTX-M-3 + SHV-11 + OXA-1
